Results published in patent US9918989B2, “Combination therapies for malaria” (The Regents of the University of California, priority 2013, dated 2018).
“Also recorded” adds a separate entry of the source.

Assays:
Plasmodium falciparum [1] = assay: P. falciparum growth in vitro, flow cytometry; assay type: cell-based; conditions: 1 μM or 10 μM (up to 10 μM), 48 h, relative to vehicle control
anti-parasite genes = assay: Midgut expression of anti-parasite/immune genes, quantitative PCR; assay type: in vivo, Anopheles stephensi; conditions: BIRB 796 with killed lysate of P. falciparum; 6 h post-feeding
[2] = test system: Anopheles stephensi p38 MAPK; assay: MK2 phosphorylation in LPS-stimulated ASE cells, western blot; assay type: cell-based; conditions: ASE cells pre-incubated with 10 μM inhibitor, 2 h later 1 μg/ml LPS
Plasmodium falciparum [3] = assay: P. falciparum development (oocysts) in A. stephensi after inhibitor-supplemented bloodmeal; assay type: in vivo, Anopheles stephensi; conditions: 10 μM in bloodmeal
Experimental: Midguts were dissected and oocysts were counted at 10 days following infection. Dots in FIG. 3A and FIG. 3C represent oocyst numbers in one midgut, while percentage positive midguts or percentage of midguts with at least one oocyst are represented as means in FIG. 3B and FIG. 3D. Mean oocysts per midgut (lines, numbers on graph) were analyzed by ANOVA (alpha=0.05) for overall significance and by Student-Neuman-Keuls for pairwise comparisons using Graphpad Prism version 4.0 (San Diego, Calif.). Prevalences of mosquito infection (indicated on graph) were analyzed by chi-square (alpha=0.05).

A. stephensi = assay: Mosquito lifespan with inhibitor in water or bloodmeal; assay type: in vivo, Anopheles stephensi; conditions: 1 μM or 10 μM daily in water or once weekly via bloodmeal
A. freeborni = assay: as above; assay type: in vivo, Anopheles freeborni; conditions: 1 μM or 10 μM daily in water or once weekly via bloodmeal

With Cc1ccc(-n2nc(C(C)(C)C)cc2NC(=O)Nc2ccc(OCCN3CCOCC3)c3ccccc23)cc1 [BIRB 796, 1-[5-tert-butyl-2-(4-methylphenyl)pyrazol-3-yl]-3-[4-(2-morpholin-4-ylethoxy)naphthalen-1-yl]urea] the “P. falciparum growth in vitro (parasitemia)” value (Plasmodium falciparum [1]) was “Neither inhibitor significantly altered parasite growth” and the “midgut immune gene expression levels” value (anti-parasite genes) was “significantly different from controls”.

C[S+]([O-])c1ccc(-c2nc(-c3ccc(F)cc3)c(-c3ccncc3)[nH]2)cc1 (centres unmarked) [SB203580, 4-[4-(4-fluorophenyl)-2-(4-methylsulfinylphenyl)-1H-imidazol-5-yl]pyridine] was tested, and the “p-MK2 levels (phosphorylation of MK2)” value [2] was “undetectable”, the “infection prevalence in A. stephensi” value (Plasmodium falciparum [3]; midguts with at least one oocyst at 10 days) was “significantly reduced” and the P. falciparum oocysts/midgut (Plasmodium falciparum [3]; oocysts counted at 10 days) was “significantly reduced”. For the same compound, the “P. falciparum growth in vitro (parasitemia)” value (Plasmodium falciparum [1]) was “Neither inhibitor significantly altered parasite growth; also recorded: no such effects”.

For Oc1c2ccccc2c2c3c(cccc13)N=N2 [SP600125, 1;9-Pyrazoloanthrone], the impact on lifespan (A. stephensi) was “no negative impact” and the impact on lifespan (A. freeborni) was “no negative impact”.
